The subject of one assay is HMVEC-d. Description: Cell proliferation, tritiated thymidine incorporation. It is filed as cell-based. The settings on record: human endothelial cells, mean±SEM. As for the experimental part:
(§1) The cells were cultured at the rate of 20,000 cells per well (96-well plate, Greiner) in the complete medium. After 24 h, the cells were cultured in a medium containing a concentration lower by half than that corresponding to the complete medium to induce the cell in phase G0/G1 of proliferation for 24 supplementary hours. The cells were then cultured for 30 h with complete medium in the presence or without the presence of AMEP. Tritiated thymidine (1 μCi per well) was then added to the cells and incubated for 18 hours. Incorporation of the tritiated thymidine by the cells was quantified by filter paper according to the protocol described for the use of a Skatron (Skatron, Lier, Norway). Radioactivity was then determined by counting after addition of scintillation liquid. The results were expressed as a percentage in relation to the control.
In general terms: Uptake of a labelled nucleoside into DNA is a usual measure of proliferation.

The test system of another assay is MDA-MB-231. The description is as above. In kind it is cell-based. The note with it: MDA-MB-231, human cancer cells, mean±SEM. As to the method:
as §1

For a further assay, the system named is 3T3. The description is as above. It is filed as cell-based. The settings on record: 3T3, murine fibroblasts, mean±SEM. As for the experimental part:
as §1

For the next assay, the system named is C51. The description is as above. It is filed as cell-based. The note with it: C51, murine cancer cells, mean±SEM. As to the method: as §1
For the next assay, the system named is HMVEC. The assay is described as above. In kind it is cell-based. The note with it: human endothelial cells, mean±SEM. As for the experimental part:
as §1

The subject of the next assay is MDA MB 231 cells. Description: Athymic murine model of tumor growth. In kind it is in vivo. The settings on record: nude mice, MDA MB 231 tumors; AMEP expressed in muscle after gene electrotransfer, doxycycline induction; after 14 days of treatment. The text has this: The cDNA of AMEP was subcloned at the Eco RV site of the vector pBi (Clonetech, Palo Alto, Calif., USA). The expression of the gene of interest in this vector was under the dependence of a promoter responding to tetracycline in an expression system involving the eukaryote gene Tet-On. The Tet-On vector expresses the transactivator rtTA (reverse tetracycline transcriptional activator) and the vector Tet-tTS expresses the silencer tTS (tetracycline transcriptional silencer). The purifications of the plasmids were performed in a manner such that no endotoxin was present (Maxi endo free Kit, Quiagen). The purified plasmid DNA was dissolved in endotoxin-free sterile 0.9% NaCl at the desired concentration.
20 μg of plasmid pBi-AMEP, 10 μg of plasmid Tet-off and 20 μg of plasmid Tet-on were dissolved in 30 μl of sterile 0.9% NaCl and injected into the tibia cranial muscle of nude or C57B1/6 mice aged 8 weeks and previously anesthetized by intraperitoneal inoculation of pentobarbital as described by Mir et al. (Mir et al., 1999). […]
The MDA-MB-231 cells, which had been previously cultured to 80% confluence, were detached, washed and resuspended in PBS at the rate of 20·10^6 cells/ml. […] The size of the tumors was monitored for 14 days after induction.

For another assay, the system named is CPAE. Description: Cell proliferation, tritiated thymidine incorporation. In kind it is cell-based, Bovine. As for the experimental part: as §1
The next assay concerns HMEC-1 cells. Description: Formation of capillary structures in fibrin gel, Cytodex beads model. It is filed as cell-based, human. As for the experimental part:
The second model used beads on the order of 150 μm according to the technique described by Nehl et al. The cells used were HMEC-1 since CPAE could not be used in this model. The HMEC-1 cells cannot, however, be employed in the previously described model. The HMEC-1 cells adhere to the Cytodex 3 beads (Sigma) when the cells are incubated with the beads in the complete medium for 4 h at 37° C. The beads were then resuspended in a large volume of complete medium to have 30 cells/beads and agitated for 5 minutes every 30 minutes at 30 rpm for 12 h, followed by a continuous culture at the same rate for 4 days. When the entire surface of the beads was covered by cells, the beads were centrifuged at 800 g for 5 minutes to concentrate and incorporate them in a fibrin gel the same as that described for the preceding model, and the same as the methods of quantification and analysis of the results. In contrast to the model used for the CPAE, the capillary structures only appeared after 3 days of culture at 37° C.

A further assay relates to B16F10. Description: Cell proliferation, tritiated thymidine incorporation. It is filed as cell-based, murine. The note with it: B16F10 cancer cells, mean±SEM. As to the method:
as §1

Another assay has as its system CPAE cells. Description: Model of endothelial cell migration (agarose, 24-well plates). In kind it is cell-based, bovine. As for the experimental part: The migration model was implemented in 24-well plates. 1.5% agarose was dissolved in the culture medium to form a gel in the wells. Half of an agarose cylinder was then inserted in a well. The CPAE cells were added to the free space left in the well and cultured until their confluence. The piece of agarose was then removed to allow the cells to migrate and AMEP was added, at the desired concentrations, to the culture medium. Then, a transparent graph paper was placed under the plate to determine the migration rate of the cells using an ocular micrometer under reverse microscope. The experiments were performed in duplicate and repeated three times. The results were expressed in percentage in relation to the control.

The record followed here is patent US8207137B2, “Method of inhibiting angiogenesis or invasion or formation of metastases” (INSERM, priority 2001, dated 2012).

Take “AMEP: disintegrin domain of human metargidin (Met-420 to Glu-511, SEQ ID NO. 2), 91 amino acids, 9.7 kDa; recombinant or expressed in vivo by gene electrotransfer”: the “% inhibition of cell proliferation by AMEP (5 μg/ml)” value with HMVEC-d is listed as 54.2 ± 2.1%; with MDA-MB-231, 17.5 ± 0.5%; with 3T3, 9.1 ± 2.2%; with C51, 0.5 ± 1.1%; in the assay on HMVEC, 52.6 ± 3.1%; in the assay with CPAE (bovine endothelial cells, 5 μg/ml, mean±SEM) it was 60.4 ± 3.2%. Also, the “% inhibition of cell proliferation by AMEP (5 μg/ml)” value with B16F10 came to 74.3 ± 7.0%. For the same substance, the “inhibition of tumor volume” value in the assay with MDA MB 231 cells is given as 78%. Moreover, the “inhibition of proliferation of endothelial cells” value was 40% in the assay on CPAE (2 μg/ml); 60% with CPAE (5 μg/ml (maximal effect)); “identical percentage” in the assay on CPAE (10 μg/ml, compared with 60% at 5 μg/ml). Moreover, the “reduction in the size of the tubes (capillary structures)” value in the assay with HMEC-1 cells (HMEC-1 on beads in fibrin gel, 5 μg/ml, after 10 days) is 90%. The “effect on formation of capillary structures” value in the assay on HMEC-1 cells (HMEC-1 on beads in fibrin gel, 5 μg/ml, after three days of culture) is “inhibitory effect”. The “formation of capillary structures” value in the assay with HMEC-1 cells (model using HMEC-1, in the presence of AMEP) is on record as “total inhibition”. Further, the “number of dead endothelial cells (floating in the culture medium)” value in the assay with CPAE cells (10 μg/ml, phase-contrast microscope (FIG. 3)) was “augmentation of the number of dead endothelial cells”. The “inhibition of cell migration” value in the assay with CPAE cells (CPAE, 10 μg/ml) was “complete inhibition”. In addition, the “effect on the displacement rate of the cells” value with CPAE cells (CPAE, 2-10 μg/ml) is given as “dose dependent”.
